The source of these data is ChEMBL document CHEMBL4033745, “3D-QSAR (CoMFA, CoMSIA), molecular docking and molecular dynamics simulations study of 6-aryl-5-cyano-pyrimidine derivatives to explore the structure requirements of LSD1 inhibitors” (Bioorg Med Chem Lett, 2017).

For the first assay, the target named is Lysine-specific histone demethylase 1A (Homo sapiens, UniProt O60341). Nature of the assay: Inhibition of LSD1 (unknown origin). To be noted: read-out: IC50.
As to `C#CCSc1nc(Nc2ccc(Cl)cc2)c(C#N)c(-c2ccccc2)n1`, the IC50 was 125 µM.

`C#CCSc1nc(Nc2ccc(F)cc2)c(C#N)c(-c2ccccc2)n1`: the IC50 stood at 125 µM.

In the case of `C#CCSc1nc(Nc2ccc([N+](=O)[O-])cc2)c(C#N)c(-c2ccccc2)n1`, the IC50 worked out at 125 µM.

Take `C#CCSc1nc(Cl)c(C#N)c(-c2ccc([N+](=O)[O-])cc2)n1`: the IC50 was determined as 125 µM.

On to `N#Cc1c(Cl)nc(SCc2cn(Cc3ccccc3Cl)nn2)nc1-c1ccc(Cl)cc1`, for which the IC50 worked out at 125 µM.

In the case of `COc1cc(-c2nc(SCc3ccc(F)cc3)nc(NNC(N)=S)c2C#N)cc(OC)c1OC`, the IC50 was 125 µM.

The same assay, now with this note: read-out: pIC50 (converted).
As for `C#CCSc1nc(Nc2ccc([N+](=O)[O-])cc2)c(C#N)c(-c2ccccc2)n1`, the IC50 was 123 µM.
